{
  "source": "patent US20240285571A1",
  "about": "“METHODS OF TREATING BONE INFECTIONS” (MICROBION CORPORATION, priority 2020, published 2024)",
  "key": {"[1]": {"tested_on": "beta-hemolytic streptococci", "assay": "MIC summary, beta-hemolytic streptococci (Example 5)", "type": "cell-based, S. pyogenes, S. agalactiae", "conditions": "beta-hemolytic streptococci (Table 6); read-out: MIC values across isolates", "method": "(§1) Test and Comparator Agents: The test agents were stored at room temperature until assayed. All test agents were suspended and diluted in 100% dimethylsulfoxide (DMSO), and were ultimately tested at a final concentration of 0.06-64 μg/mL. The stock solutions were allowed to stand for at least 1 hr prior to use to auto-sterilize.\n(§2) TestMedia: Test media were prepared and stored in accordance with guidelines from CLSI (4, 6, 7). […] Neisseria gonorrhoeae were evaluated by agar dilution using agar consisting of GC medium base (BD; Lot No. 4274618) supplemented with 1% IsoVitaleX (BD; Lot No. 5246843).\n(§3) Broth Microdilution MC Testing (Aerobic Bacteria and Yeast): The broth microdilution assay method employed for the susceptibility testing of aerobic bacteria (excluding N. gonorrhoeae which was evaluated by agar dilution) and yeast essentially followed the procedures described by CLSI (3, 4, 7, 8) and employed automated liquid handlers to conduct serial dilutions and liquid transfers. […]\n(§4) Plates were stacked 4 high, covered with a lid on the top plate, placed into plastic bags, and incubated at 35° C. for approximately 24-48 hr for all yeast isolates and 16-24 hr for aerobic bacteria. […] MIC endpoints for the test agents and control compounds were read per CLSI criteria (3, 7)."}, "Enterobacteriaceae": {"tested_on": "Enterobacteriaceae", "assay": "MIC summary across Enterobacteriaceae (Example 5)", "type": "cell-based, E. coli, K. pneumoniae, Enterobacter cloacae", "conditions": "all evaluated Enterobacteriaceae isolates (Table 3)", "method": "as §1, §2, §3, §4"}, "E. cloacae": {"tested_on": "E. cloacae", "assay": "Broth microdilution MIC (Example 5)", "type": "cell-based, Enterobacter cloacae", "conditions": "Enterobacter cloacae, ATCCBAA2468", "method": "Test and Comparator Agents: The test agents were stored at room temperature until assayed. […] The stock solutions were allowed to stand for at least 1 hr prior to use to auto-sterilize.\nTestMedia: Test media were prepared and stored in accordance with guidelines from CLSI (4, 6, 7).\nBroth Microdilution MC Testing (Aerobic Bacteria and Yeast): The broth microdilution assay method employed for the susceptibility testing of aerobic bacteria (excluding N. gonorrhoeae which was evaluated by agar dilution) and yeast essentially followed the procedures described by CLSI (3, 4, 7, 8) and employed automated liquid handlers to conduct serial dilutions and liquid transfers. […] These would become the ‘mother plates’ from which ‘daughter’ or test plates would be prepared. The drugs (300 μL at 40× the desired top concentration in the test plates) were dispensed into the appropriate well in Column 1 of the mother plates. The Biomek 2000 was used to make serial two-fold dilutions through Column 11 in the “mother plate”. […]\nas §4"}, "S. pyogenes": {"tested_on": "S. pyogenes", "assay": "Broth microdilution MIC (Example 5)", "type": "cell-based", "conditions": "Streptococcus pyogenes", "in_short": "(§5)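 Susceptibility testing used automated two-fold serial dilution in microdilution plates per CLSI. Each well received a standardized inoculum from a 0.5 McFarland suspension, with an unmedicated column as growth control.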"}, "S. agalactiae": {"tested_on": "S. agalactiae", "assay": "Broth microdilution MIC (Example 5)", "type": "cell-based", "conditions": "Streptococcus agalactiae", "in_short": "as §5"}, "S. pneumoniae": {"tested_on": "S. pneumoniae", "conditions": "S. pneumoniae MMX 6837 (ATCC 49619); cited from earlier work"}, "[2]": {"tested_on": "Achromobacter spp. biofilm", "assay": "Activity against biofilms (Example 7)", "type": "cell-based", "conditions": "tested up to 250 μg/mL"}, "[3]": {"tested_on": "Pseudomonas aeruginosa biofilms (MR14, AG14)", "assay": "Activity against biofilms (Example 7)", "type": "cell-based", "conditions": "MR14, MDR CF-isolate of P. aeruginosa; at 25 ng/mL"}, "[4]": {"tested_on": "MABSC / M. abscessus biofilms", "assay": "Activity against biofilms (Example 7)", "type": "cell-based, Mycobacterium abscessus complex", "conditions": "AMT0130-8 MABSC CF-isolate"}},
  "data": [
    {"smiles": "OCC(S)CS.[Bi]", "note": "(stereo not shown) [MB-2B, bismuth-2,3-dimercaptopropanol]", "values": [
      {"measurement": "MIC", "setting": "[1]", "value": "0.25 to 8", "unit": "µg/mL"},
      {"measurement": "MIC", "setting": "Enterobacteriaceae", "value": "2 to 32", "unit": "µg/mL"},
      {"measurement": "MIC", "setting": "E. cloacae", "value": 32, "unit": "µg/mL"},
      {"measurement": "MIC", "setting": "S. pyogenes; S. pyogenes MMX 3068, EryR", "value": 2, "unit": "µg/mL"},
      {"measurement": "MIC", "setting": "S. pyogenes; S. pyogenes MMX 3820, ERYR CLIR", "value": 1, "unit": "µg/mL"},
      {"measurement": "MIC", "setting": "S. pyogenes; S. pyogenes MMX 3919, ERYR", "value": 0.25, "unit": "µg/mL"},
      {"measurement": "MIC", "setting": "S. pyogenes; S. pyogenes MMX 3929, ERYR CCR", "value": 1, "unit": "µg/mL"},
      {"measurement": "MIC", "setting": "S. pyogenes; S. pyogenes MMX 5091, ERYR CCR", "value": 1, "unit": "µg/mL"},
      {"measurement": "MIC", "setting": "S. agalactiae; S. agalactiae MMX 3741, ERYR CCR", "value": 4, "unit": "µg/mL"},
      {"measurement": "MIC", "setting": "S. agalactiae; S. agalactiae MMX 3743, ERYR CCR", "value": 4, "unit": "µg/mL"},
      {"measurement": "MIC", "setting": "S. agalactiae; S. agalactiae MMX 4077, ERYR CCR", "value": 4, "unit": "µg/mL"},
      {"measurement": "MIC", "setting": "S. agalactiae; S. agalactiae MMX 4079, ERYR CCR PenR MEMR", "value": 8, "unit": "µg/mL"}
    ]},
    {"smiles": "C[C@@H](O)[C@H]1C(=O)N2C(C(=O)O)=C(S[C@@H]3CN[C@H](C(=O)N(C)C)C3)[C@H](C)[C@H]12", "note": "[Meropenem]", "values": [
      {"measurement": "CLSI QC range of MIC", "setting": "S. pneumoniae", "value": "(0.06-0.25) μg/mL"}
    ]},
    {"smiles": "CC(S)C(C)S.[Bi]", "note": "(stereo not shown) [MB-6, bismuth-2,3-butanedithiol]", "values": [
      {"measurement": "Reduction in viable biofilm cells", "setting": "[2]", "value": 5, "unit": "log"},
      {"measurement": "Reduction in biofilm cell viability", "setting": "[3]", "value": 2, "unit": "logs"},
      {"measurement": "Reductions in biofilm cell viability", "setting": "[4]", "value": "only very modest reductions"}
    ]}
  ]
}
